Measurements: patent publication US12644104B2, “Detection of environmental influences by bioluminescence” (priority 2020, dated 2026)

Columns and labels:
[1] = test system: yeast strain BY4742; experiment: Detection of leucine by bioluminescence of leucine-auxotrophic BY4742 carrying pRS426-Lux (Example 4); assay type: cell-based, Saccharomyces cerevisiae; conditions: CSM-Leu-URA medium, leucine added after 5 h incubation, FIG. 4
Procedure: (§1) D-Luciferin sodium salt (Carl Roth, Germany) was dissolved in 0.1 M Na2 HPO4-citrate buffer pH 5 to a final luciferin concentration of 1 mM. 100 μl of an overnight yeast culture was adjusted depending on the experimental question to a suitable starting OD600 of around 1.0 or less in CSM medium. 100 μl of yeast cells, 25 μl of a test solution (e.g., amino acid), and 25 μl of 1 mM luciferin solution were added in this order to a well of a black 96-well microtiter plate with a transparent bottom (Microplate, 96 well, PS, F-Bottom (Chimney Well) μClear®, Black, Med. Binding; Greiner bio-one, Germany) for a measurement. Measurements were performed using a Tristar2S Platereader (Berthold, Germany) at a constant temperature of 28° C.
The yeast strain BY4742 used by the inventors has several auxotrophies, including leucine auxotrophy, which makes this strain useful for leucine detection. For this purpose, the strain was grown overnight in CSM-URA medium. […] After 5 h of incubation, a defined amount of leucine was added and luminescence was subsequently measured (FIG. 4). […] The relationship between available leucine and measured bioluminescence behaves in a concentration-dependent manner within a certain concentration range, so that the leucine concentration can be correlated and measured with the bioluminescence.

[2] = test system: S. cerevisiae strain BY4742; experiment: Luminescence comparison of bacterial luciferase construct with Firefly luciferase in BY4742 (Example 2); assay type: cell-based, Saccharomyces cerevisiae
Procedure: as §1
The luciferase from Photinus pyralis was chosen for comparison because it is most commonly used in bioanalysis (see FIG. 6).
After both plasmids have the same genetic requirements, such as FBA1 promoter and terminator, the same vector backbone and were also transformed into BY4742, both plasmids could be directly compared. The experiment was performed twice with three technical replicates each time. The cultures were grown overnight at 28° C. and were each diluted with 50 μl of fresh medium (YPD medium). For the produced prototype (nucleic acid according to the invention, SEQ ID NO: 7), water was added instead of 50 μl of the luciferin solution (2 mM final concentration).
The luminescence of the Firefly luciferase is about 100,000 RLU. In contrast, the […]. After 5.4 h, only a low luminescence of 6893 can be measured (see FIG. 2D). The CSM-URA plates were photographed in daylight (FIG. 2A) and in complete darkness (FIG. 2B) by a commercial photographic camera. The naked eye was also able to perceive the light produced by the yeasts.

## CC(C)C[C@H](N)C(=O)O [leucine]
[1]
  leucine concentration from which organisms grow and light signal increases regardless of concentration: > 49 mg/L
  leucine concentration with limiting effect on cell metabolism and maximum possible bioluminescence: less than 20 mg/L

## Firefly luciferase: plasmid encoding Photinus pyralis luciferase under the FBA1 promoter and terminator, same pRS426 backbone
[2]; BY4742, FBA1 promoter/terminator, YPD, luciferin 2 mM added only for Firefly, FIG. 2D
  initial luminescence: 52,475 RLU
[2]; BY4742, FIG. 2D, luciferin added only for Firefly
  luminescence after 5.4 h: 6893 RLU
[2]; BY4742, luciferin 2 mM final, FIG. 2D
  luminescence after 1.7 h: 19,143 RLU
